Measured values from US8551312B2, “Process to prepare amino acid-N, N-diacetic acid compounds” (Akzo Nobel N.V., priority 2006, dated 2013).

How the values were obtained:
Assay type in all cases: physicochemical
[1] = pH of the c. 40 wt % chelate solution by glass electrode; details: c. 40 wt % chelate solution as such
Protocol: (§1) Commercial Dissolvine® GL-38, Dissolvine® H-40 ex Akzo Nobel Chemicals, and Trilon® M ex BASF were used as reference GLDA-Na4, HEDTA-Na3, and MGDA-Na3, respectively. The partially acidified chelates (40% in water) were prepared by addition of the corresponding chelate acid (in water) to the commercial product until the highest pH was obtained at which less than 0.1 wt % fully neutralized chelate is present. GLDA-H4 was prepared by electrodialysis and MGDA-Nax<3H3−x was made from Trilon® M by ion exchange. The desired pH was derived from the species distribution graphs that are based on the protonation constants.
The pH of the c. 40 wt % chelate solution as such was determined by a glass electrode.

[2] = Conductivity of c. 40 wt % chelate solution (Knick Konductometer 703); details: c. 40 wt % chelate in water
Protocol: as §1, with “constants. The resulting chelate solutions all have a chelate content (Fe-TSV) between 38.3 and 43 wt % of the salt actually present.” for “constants.”
The conductivity was measured with a Knick Konductometer 703.

[3] = Viscosity (Brookfield DV-II+ pro viscometer, S-18 spindle); details: c. 40 wt % chelate in water
Protocol: as §1, with “constants. The resulting chelate solutions all have a chelate content (Fe-TSV) between 38.3 and 43 wt % of the salt actually present.” for “constants.”
The viscosity was determined with a Brookfield DV-II+ pro viscometer, using a S-18 spindle. The temperature was maintained with a cryostat.

[4] = Corrosiveness against aluminium, weight loss of submerged plates; details: aluminium plates submerged in c. 40 wt % chelate solution at RT
Protocol: as §1, with “constants. The resulting chelate solutions all have a chelate content (Fe-TSV) between 38.3 and 43 wt % of the salt actually present.” for “constants.”
The corrosiveness against aluminium was determined using unspecified aluminium plates. The aluminium plates of 6×3×0.2 cm, supplied by the technical service, were cleaned with ethanol cleaner and dried and the weight of the plates was measured. Subsequently, the plates were completely submerged in the commercial or partially acidified chelate solution and kept at RT. In time, the plates were removed from the solutions, rinsed, dried by technical air, and weighted. The corrosiveness was expressed as the weight loss after a certain period of time. Furthermore, the aluminium plates and the chelate solution were visually inspected to evaluate the corrosion process.

Molecule | pH [1] | Conductivity (mS/cm) at 20° C. [2] | Viscosity at 20° C. (Mpas) [3] | Viscosity at 40° C. (Mpas) [3] | Corrosiveness Aluminium (% weigth loss after 70 hr) [4]
tetrasodium glutamic acid-N,N-diacetate [GLDA-Na4] | 13.5 | 20.9 mS/cm | 51.5 Mpas | 21.4 Mpas | 7 % weigth loss
O=C([O-])CN(CCO)CCN(CC(=O)[O-])CC(=O)[O-].[Na+].[Na+].[Na+] [HEDTA-Na3] | 13.4 | 20.29 mS/cm | 31 Mpas | 14.7 Mpas | 7 % weigth loss
CC(C(=O)[O-])N(CC(=O)[O-])CC(=O)[O-].[Na+].[Na+].[Na+] (stereo not drawn) [MGDA-Na3] | 13.5 | 25.8 mS/cm | 26 Mpas | 11.0 Mpas | 6 % weigth loss
